From paper PMC10648349, “Aromatic Diboronic Acids as Effective KPC/AmpC Inhibitors” (Molecules, 2023)
≈ marks a conversion by molar mass, not a printed value.

Legend:
Type in all cases: cell-based
yeasts = assay: antifungal activity, MIC/MFC; conditions: for MFC: yeasts against which fungicidal activity was noticed
Description: Direct antimicrobial activity against Gram-negative and Gram-positive bacterial strains, as well as against yeast, was examined as previously described by the disc-diffusion test, the MIC determination assay, the MBC (for bacteria), and the MFC (for yeasts) determination tests. All the above-mentioned tests were performed according to EUCAST [71, 72] and CLSI [73, 74, 75, 76, 77] recommendations. The following reference agents were used: nitrofurantoin (for Gram-negative rods), linezolid (for Gram-positive bacteria), and fluconazole (in the case of fungi). The new aromatic diboronic acids were dissolved in DMSO (Sigma, St. Louis, MO, USA). In the disc-diffusion test, the concentration of new agents was 0.4 mg per disc. Depending on the solubility, the MIC and MBC/MFC values were determined up to 100 mg/L for 1k, up to 200 mg/L for 7c, and up to 400 mg/L for the remaining compounds: 1a–1j, 2a–2g, 3a–3f, 4a–4b, 5a–5c, 6a and 7a–7b.

KPC producers = assay: microdilution with carbapenems
Description: (§1) To examine the ability of tested agents to inhibit various carbapenemases and AmpC-enzymes, their synergy with antibiotics against β-lactamase-producing strains was assessed by checkerboard microdilution assay, with slight modification. Checkerboards were prepared in microtiter plates, with seven two-fold dilutions of β-lactams (1–64 mg/L) in the rows and three two-fold dilutions of tested agents and PBA (4–16 mg/L) in the columns. Tested agents’ concentrations were limited to the concentrations at which the newest commercially available BLIs (vaborbactam, relebactam, and avibactam) are used in susceptibility testing. Plates were inoculated and incubated as in the MIC microdilution assay. Parallel, MICs of tested agents and PBA alone were determined by the microdilution assay. Following the incubation, antibiotic MICs in the presence of each agent’s concentration were determined. Moreover, for the first well without growth found in each checkerboard row and column along the growth/non-growth interface, the fractional inhibitory concentration index (FICI) was calculated using the formula below:FICI = [(MIC of antibiotic in combination)/(MIC of antibiotic alone)] + [(MIC of the tested agent in combination)/(MIC of tested agent alone)].
(§2) For calculations, all off-scale MICs were converted to the next-highest doubling concentration. Subsequently, both the average and the lowest FICI were interpreted. The interpretation was as follows: FICI ≤ 0.5, synergy; 0.5 < FICI ≤ 4, indifference and FICI > 4, antagonism. Primarily, examined combinations consisted of meropenem (Pol-Aura, Morag, Poland) plus tested agents against carbapenemases-producing strains and ceftazidime (Pol-Aura, Morag, Poland) plus tested agents against AmpC-producing strains. For agents that reduced meropenem MIC at least 4-fold for at least two tested strains, similar assays were performed with imipenem (Pol-Aura, Morag, Poland) and ertapenem (Pol-Aura, Morag, Poland).

AmpC producers = assay: microdilution with ceftazidime
Description: as §1, §2

OB(O)c1cc(Br)c(B(O)O)cc1Br [1i]
MIC (yeasts; moderate antifungal activity): 6.25 to 50 mg/L (≈ 19.3 to 155 µM)

OB(O)c1ccc(C(F)(F)F)cc1B(O)O [3e]
MIC (yeasts; most Candida spp.): 3.12 to 6.25 mg/L (≈ 13.3 to 26.7 µM) | MFC (yeasts): 400 mg/L (≈ 1710 µM)

OB(O)c1ccc(B(O)O)cc1 [1a]
carbapenems' MIC reduction, up to (KPC producers; agent 4 mg/L): ≤ 2 fold | carbapenems' MIC reduction, up to (KPC producers; agent 8 mg/L): up to 8 fold | ertapenem potentiation better than PBA, by up to (KPC producers; all KPC producers): up to 8 fold

OB(O)c1ccsc1B(O)O [5a, thiophene-2,3-diboronic acid]
ceftazidime MIC reduction, up to (AmpC producers; agent 4 mg/L): ≤ 2 fold | ceftazidime MIC reduction, up to (AmpC producers; agent 8 mg/L): up to 4 fold | ceftazidime MIC reduction, up to (AmpC producers; agent 16 mg/L): ≤ 8 fold

OB(O)c1ccccc1B(O)O [3a, phenylene-1,2-diboronic acid]
ceftazidime MIC reduction, up to (AmpC producers; agent 4 mg/L): ≤ 2 fold | ceftazidime MIC reduction, up to (AmpC producers; agent 8 mg/L): up to 4 fold | ceftazidime MIC reduction, up to (AmpC producers; agent 16 mg/L): ≤ 8 fold | carbapenems' MIC reduction, up to (KPC producers; agent 4 mg/L): ≤ 8 fold | carbapenems' MIC reduction, up to (KPC producers; agent 8 mg/L): up to 16 fold | carbapenems' MIC reduction, up to (KPC producers; agent 16 mg/L): up to 64 fold | fractional inhibitory concentrations indices with carbapenems (KPC producers; checkerboard assays): 0.1–0.32

OB(O)c1cccc(F)c1B(O)O [3b]
ceftazidime MIC reduction, up to (AmpC producers; agent 4 mg/L): ≤ 2 fold | ceftazidime MIC reduction, up to (AmpC producers; agent 8 mg/L): up to 4 fold | ceftazidime MIC reduction, up to (AmpC producers; agent 16 mg/L): ≤ 8 fold

OB(O)c1ccccc1 [PBA, phenylboronic acid, reference compound]
carbapenems' MIC reduction, up to (KPC producers; agent 16 mg/L, KPC-2 producers): up to 8 fold | carbapenems' MIC reduction, up to (KPC producers; agent 16 mg/L, KPC-3 producers): up to 4 fold

OB(O)c1cc(F)ccc1F [7a, 2,5-difluorophenylboronic acid]
ceftazidime MIC reduction, up to (AmpC producers; agent 4 mg/L): ≤ 8 fold | ceftazidime MIC reduction, up to (AmpC producers; agent 8 mg/L): up to 16 fold | ceftazidime MIC reduction, up to (AmpC producers; agent 16 mg/L): up to 32 fold | carbapenems' MIC reduction, up to (KPC producers; agent 4 mg/L): ≤ 2 fold | carbapenems' MIC reduction, up to (KPC producers; agent 8 mg/L): up to 8 fold

OB(O)c1ccc(B(O)O)c(B(O)O)c1 [4b, benzene-1,2,4-triboronic]
ceftazidime MIC reduction, up to (AmpC producers; agent 4 mg/L): ≤ 2 fold | ceftazidime MIC reduction, up to (AmpC producers; agent 8 mg/L): up to 4 fold | ceftazidime MIC reduction, up to (AmpC producers; agent 16 mg/L): ≤ 8 fold

OB(O)c1ccccc1S [7c, 2-mercaptophenylboronic acid]
MFC (yeasts): 25 to 200 mg/L (≈ 162 to 1300 µM)
